Data reported in patent US20050112071A1, “Hypoestoxides, derivatives, agonists and crude extracts thereof for use in cosmetic compositions” (PARAQUEST, INC., priority 2003, published 2005).

System: subjects with psoriasis
Experiment: erythema resolution in psoriasis plaques after topical administration
Assay type: in vivo, human
Settings: 0.5% by weight in cosmetic composition, topical twice daily for one week; two subjects, elbows; observed day 7
Protocol: In another method, an effective amount of hypoestoxide crude extract, hypoestes rosea dried leaf powder or a compound of formula I, in a cosmetic composition or in isolation, is applied to the host's skin to alleviate psoriasis. In a preferred embodiment, 0.5% by weight of pure hypoestoxide in a cosmetic composition was applied to two subjects with psoriasis. Topical administration was performed twice daily for one week at the subjects' job sites. Subjects had crusted erythematous plaques on their elbows. The cosmetic composition consisted of the following ingredients: multi-fruit complex, cetearyl alcohol and ceteareth 20, glyceryl stearate, cetyl alcohol, tocopherol, vitamin A palmatate, allantoin, lanolin, ascorbic acid, botanical extract, xanthan gum, ceteth-20 and propylparaben. Erythema resolution was noted by observation of the subjects' plaques on day 7.

## C=C1C(=O)C[C@H]2C[C@@H]3O[C@@]3(C)CC[C@@H]3O[C@@]3(C)C[C@@H](OC(C)=O)[C@H]1C2(C)C [hypoestoxide]
  Erythema resolution of crusted erythematous plaques: significant erythema resolution
